According to patent publication US7960339B2, “Antimicrobial peptides” (Österreichische Akademie der Wissenschaften, priority 2006, dated 2011):
Like-named read-outs stand apart in the source and are kept apart here. Ends that are not written are not given here. Peptide text beside a SMILES is read from it. * marks the point of attachment. Octanoyl(6-Me) = CCC(C)CCCCC(=O)*

Columns and labels:
C. neoformans ATCC 32045 = type: cell-based
Summary of the method: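 Fungal inoculum was about 1×10^5 to 5×10^5 CFU/ml in 2×YM broth, added to peptides dispensed at 1 mg/ml to 1 μg/ml in twofold serial dilutions. After 72 hrs at 26° C, relative growth was read as OD620. IC50 values came from sigmoidal curve fitting.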

LPS S. Minnesota Re595 = experiment: Endpoint LAL activity (Limulus gel-clotting test), inhibition of lipid A-induced LAL enzymatic cascade; type: biochemical; conditions: sensibility 0.125 EU/ml, peptide:LPS 100:1 (w/w), minimum of 6 tests in triplicate
Experimental: (§1) The principle of lipid A-induced pro-inflammatory cytokine activity leading to hemorrhagic dermonecrosis (classical Shwartzmann reaction) was tested in rabbit, an animal model very close to humans in terms of sensitivity to LPS activity, and was compared to the inhibition of the lipid A-induced LAL enzymatic cascade activation leading to clot. Thereby, New Zealand White rabbits were injected in the shaved dorsal region with S. minnesota Re595 lipid A alone or with peptide 1:100 (w/w) (5 μg in 0.2 ml saline buffer; route i.d.). […] Polymyxin B (PmB) was used as a control.

MonoMac6 cells = experiment: Release of TNFα from MonoMac6 cells stimulated by bacteria killed with antibiotics or peptides (ELISA); type: cell-based; conditions: E. coli strain 0:111 incubated over night with agent, then 15 hours on 10^5 MonoMac6 cells; FIG. 5
Experimental: Bacteria can be killed by different antibiotics, targeting different molecules essential for bacterial survival. When Gram-negative bacteria are killed, released LPS can stimulate production of cytokines, such as TNFα, or other inflammatory mediators. Comparison of well-established antimicrobial agents acting through different cellular targets with compounds of this invention were done in the following manner: bacteria (E. coli strain 0:111) were grown in LB medium to the absorbance at 600 nm of 0.4 and diluted 2500 fold in RPMI medium with added glucose. Different concentrations of antibiotics or peptides from this invention were added and incubated over night. 80 μl of cell suspension was added to the 100 μl containing 10^5 MonoMac6 cells and after 15 hours the release of TNFα to the medium was determined using ELISA test.

LPS Re595 = experiment: Local Shwartzmann reaction in rabbit (lipid A-induced hemorrhagic dermonecrosis); type: in vivo, New Zealand White rabbits; conditions: i.d. injection in shaved dorsal region; open necrosis observed after 72-96 hours; minimum 3 injections in minimum 3 rabbits
Experimental: as §1

E. coli (strain 0:111) = experiment: Antimicrobial assay with peptide immobilized on magnetic particles; type: cell-based; conditions: over night
Experimental: Peptide P2-32 (500 μg) was covalently bound to the cyanuric chloride-activated magnetic particles (10 mg) (Chemicell, Product number 1314) using phosphate buffer saline pH=7.5. After mixing the suspension on a shaker for 2 hours at room temperature the blocking buffer (PBS pH=7.5 and 2% ethanolamine) were added and mixed the suspension on a shaker for 30 minutes at room temperatures. The particles were washed twice with PBS. Immobilized peptides were tested against E. coli (strain 0:111) grown in LB medium to the absorbance at 600 nm of 0.4 and diluted 2500 fold in LB medium. Different concentrations of magnetic particles immobilized with peptides were added and incubated over night.

E. coli LPS = experiment: Mouse model of acute endotoxemia (LPS plus galactosamine); type: in vivo, ICR-CD1 mice; conditions: 150 μg intraperitoneal immediately after 0.3 μg E. coli LPS + 18 mg galactosamine; monitored until 168 hours
Experimental: Mice are remarkably resistant to LPS-mediated septic shock. However, the sensitivity of mice to endotoxin can be potentiated by coinjecting LPS with galactosamine. Groups of 16-18 female ICR-CD1 mice of 20-25 g of weight were intraperitoneally injected with 200 μl of pyrogen-free saline containing a mixture of 0.3 μg of E. coli LPS and 18 mg of galactosamine. Previous experiments allowed to determine that such a combination was lethal for 90% (LD90) of the animals 48 h after the injection. Immediately after this challenge, mice received a second intraperitoneal injection at a different site of the abdomen containing 150 μg of the peptide dissolved in 150 μl of 10% DMF pyrogen-free saline. In all the experiments a group of mice was left untreated whereas another group received 150 μg of polymyxin B. Mortality of the animals was monitored at daily intervals until 168 hours postchallenge.

With `CC[C@H](C)[C@H](NC(=O)[C@H](CCCNC(=N)N)NC(=O)[C@@H](NC(=O)[C@H](CCCNC(=N)N)NC(=O)[C@H](Cc1c[nH]c2ccccc12)NC(=O)[C@H](Cc1ccccc1)NC(=O)[C@@H]1CCCN1)[C@@H](C)CC)C(=O)N[C@@H](CCCNC(=N)N)C(=O)N[C@@H](CCCNC(=N)N)C(N)=O` [VS1-22, PFWRIRIRR-NH2] (H-PFWRIRIRR-NH2; N-terminus assumed) the “average IC50” value (C. neoformans ATCC 32045; 50% growth inhibition, OD620, 72 hrs at 26° C., 2×YM broth) was 2 µg/mL, the “average MIC” value (C. neoformans ATCC 32045; lowest concentration that resulted in 2% growth, OD620, 72 hrs at 26° C., 2×YM broth) was 8 µg/mL and the “Endpoint LAL activity peptide: LPS Re595 100:1 (w/w)” value (LPS S. Minnesota Re595) was “NEGATIVE”. The “release of TNFα / stimulation of the monocytes” value (MonoMac6 cells) was “significantly inhibited the release of TNFα” and the “Local Shwartzmann reaction in rabbit peptide: LPS Re595 100:1 (w/w)” value (LPS Re595) was “NEGATIVE”.
“FIWRWRWR-NH2 (also: bound to magnetic particles) [Peptide P2-32]” was tested, and the bacterial growth (E. coli (strain 0:111); 0.25 mg immobilized magnetic particles, 100 μl diluted E. coli in LB) was “not-inhibited”, the bacterial growth (E. coli (strain 0:111); 0.5 mg immobilized magnetic particles, 100 μl diluted E. coli in LB) was “not-inhibited” and the bacterial growth (E. coli (strain 0:111); 1 mg immobilized magnetic particles, 100 μl diluted E. coli in LB) was “inhibited”. For the same compound, the bacterial growth (E. coli (strain 0:111); 2.5 mg immobilized magnetic particles, 100 μl diluted E. coli in LB) was “inhibited”, the bacterial growth (E. coli (strain 0:111); 5 mg immobilized magnetic particles, 100 μl diluted E. coli in LB) was “inhibited” and the bacterial growth (E. coli (strain 0:111); 50, 25 and 10 mg/ml concentrations of immobilized magnetic particles) was “prevented bacterial growth”.
In the case of `CCC(C)CCCCC(=O)N1CCC[C@H]1C(=O)N[C@@H](Cc1ccccc1)C(=O)N[C@@H](Cc1c[nH]c2ccccc12)C(=O)N[C@@H](CCCNC(=N)N)C(=O)N[C@H](C(=O)N[C@@H](CCCNC(=N)N)C(=O)N[C@H](C(=O)N[C@@H](CCCNC(=N)N)C(=O)N[C@@H](CCCNC(=N)N)C(N)=O)[C@@H](C)CC)[C@@H](C)CC` (some centres unmarked) [VS1-53, 6-methyloctanoyl PFWRIRIRR-NH2] ({Octanoyl(6-Me)}-PFWRIRIRR-NH2), the “average IC50” value (C. neoformans ATCC 32045; ATCC 32045, 72 h) is reported as 6 µg/mL, the “average MIC” value (C. neoformans ATCC 32045; ATCC 32045, 72 h) is reported as 16 µg/mL and the “release of TNFα / stimulation of the monocytes” value (MonoMac6 cells) is reported as “significantly inhibited the release of TNFα”.
In the case of `O=C(N[C@H](CO)[C@H](O)c1ccc([N+](=O)[O-])cc1)C(Cl)Cl` [chloramphenicol], the “release of TNFα / stimulation of the monocytes” value (MonoMac6 cells) is reported as “high stimulation of the monocytes”.
For penicilin, the “release of TNFα / stimulation of the monocytes” value (MonoMac6 cells) was “high stimulation of the monocytes”.
For polymyxin B [PmB, reference compound], the “Endpoint LAL activity peptide: LPS Re595 100:1 (w/w)” value (LPS S. Minnesota Re595) was “NEGATIVE”, the “release of TNFα / stimulation of the monocytes” value (MonoMac6 cells) was “significantly inhibited the release of TNFα” and the “protection against endotoxic shock (mortality)” value (E. coli LPS) was “did not confer significant protection”. For the same compound, the “Local Shwartzmann reaction in rabbit peptide: LPS Re595 100:1 (w/w)” value (LPS Re595) was “NEGATIVE”.
